{
  "source": "patent US11129870B2",
  "about": "“Compositions and methods for uncoupling TrkB receptor from PLC gamma 1 for the treatment of epilepsy and anxiety-like disorder” (DUKE UNIVERSITY, priority 2010, dated 2021)",
  "key": {"[1]": {"system": "kainic acid-induced status epilepticus", "assay": "Status epilepticus induced by kainic acid infusion into amygdala, peptide given i.v. before KA", "format": "in vivo, mouse", "method": "FIG. 15: Continuous limbic and tonic-clonic seizures (status epilepticus) were induced in awake, adult male WT C57BL/6 mice weighing 20-25 g by unilateral stereotaxic microinjection of 0.3 μg kainic acid (KA) in a volume of 0.2 μl PBS, pH 7.4, into the right basolateral amygdala nucleus. Seven to nine days prior to KA infusion, a guide cannula was placed in the right amygdala under pentobarbital anesthesia using the following stereotactic coordinates relative to bregma: AP, −0.94 mm; ML, −2.85 mm; and DV, −3.75 mm (AP, anterior-posterior; ML, medio-lateral; DV, dorso-ventral); additionally, a bipolar EEG recording electrode was implanted into contralateral dorsal hippocampus: AP, −2.00 mm; ML, 1.60 mm; and DV, −1.53 mm. Phospho-Tat-pTrkBY816 or Scr-phospho-Tat-pTrkBY816 was injected intravenously through tail vein before amygdala KA infusion. EEG and mice behavior were recorded by EEG recording device and video camera respectively for 45 min following infusion of KA. Design of the time course and dose response experiments are presented in top and bottom panels respectively.\nAs described previously, microinjection of kainic acid into the right amygdala of awake, adult mice reliably induces continuous limbic and clonic motor seizures accompanied by electrographic evidence of seizure activity as detected by EEG recording electrode in the contralateral hippocampus. Status epilepticus is terminated by intraperitoneal administration of diazepam 45 minutes following infusion of kainic acid.\nWe asked whether intravenous infusion of Tat-pTrkBY816 via tail vein inhibited status epilepticus induced by microinjection of kainic acid into the right amygdala (FIG. 15). […] The inhibition of status epilepticus was also dose dependent. […] Whereas a dose of 1 mg/kg of Tat-pTrkBY816 was ineffective, doses of 3 mg/kg and 10 mg/kg effected a striking inhibition such that status epilepticus was prevented in at least 70% of animals (FIG. 17, top). By contrast, kainic acid induced status epilepticus in all animals pretreated with the control scr-Tat-pTrkBY816 regardless of dose (FIG. 17, top).\nSurgery and microinfusion studies provided in Examples 10-14 were performed as described here. Surgery and microinfusion of KA into right amygdala of adult mice was performed as previously described (Liu, G. et al., (2013) Neuron 79:31-38). Briefly, mice were anesthetized with pentobarbital (60 mg/kg, intraperitoneally [i.p.]) and placed in a stereotaxic frame. A guide cannula was stereotactically placed above the right amygdala (coordinates from bregma: AP=−1.2 mm; ML=3.0 mm). A bipolar electrode was placed in the left dorsal hippocampus (coordinates from bregma: AP=−2.0 mm; ML=−1.6 mm; DV=−1.5 mm). A ground electrode connected to a screw was placed in the skull above the cerebellum. After a postoperative recovery period of 7 days, the animal was gently restrained and an infusion cannula was inserted into the right amygdala through the guide cannula at the depth of 3.7 mm below dura. Either KA (0.3 μg in 0.5 μl PBS) or vehicle control (0.5 μl of PBS) was infused into the right basolateral amygdala at the rate of 0.11 μl per minute. The infusion cannula was left in the right amygdala for two additional minutes before being withdrawn from the guide cannula. Animals were housed individually for time locked electroencephalogram (EEG) telemetry and video monitoring with food and water ad libitum.\nEmergence of SE was typically evident in EEG recordings 5-10 min after KA infusion. The behavioral seizures associated with electrographic seizures typically consisted of immobility, followed by facial automatisms, unilateral or bilateral forelimb clonus, and whole body clonus. Tonic-clonic seizures with loss of posture and jumping also occurred during the seizures (Mouri, G. et al., (2008) Brain Res 1213:140-151). For experiments in which p816 or Scr was administered prior to SE, mice were monitored for 45 min following KA infusion. […]"}, "anxiety-like behavior": {"system": "anxiety-like behavior", "assay": "Light/dark box test of anxiety-like behavior 8 weeks after SE", "format": "in vivo, mouse", "details": "8 weeks post-SE; Scr vs PBS controls, pY816 vs Scr", "method": "It was therefore tested whether this SE-induced behavioral abnormality could also be prevented by treatment with pY816 initiated following SE. To address this question, following completion of video-EEG recording during days 29-42, anxiety-like behavior was assessed using the light-dark emergence test (Bourin, M. et al., (2003) Eur J Pharmacol 463:55-65).\nSpecifically, a plexiglas arena (40×40×40 cm) was placed in a room with homogenous illumination (˜300 lux). The arena was subdivided into sixteen 10×10 cm squares by lines marked on the floor. Each mouse was placed in the center of the open field and allowed to explore freely the apparatus for 5 minutes. The apparatus ([…]) consisted of two acrylic compartments. The dark compartment (30×40 cm) and light compartment (40×40×40 cm, brightly illuminated at 600 lux) were separated by a divider with a 5.5×5.5 cm opening at floor level. Mice were placed into the dark side and allowed to move freely between the two chambers with the door open for 5 minutes. During behavior tests, a video camera was mounted directly above the arena to monitor animal activity and movement. An investigator unaware of the treatment reviewed the video and recorded: 1) line crossing (frequency of crossing grid lines with all four paws) and the frequency of rearing (standing on hind legs or leaning against the walls of the arena) to assess locomotor activity in open field test; and 2) the latency to first entry into lighted compartment (entering the lighted side with all four paws) and the total time spent on the lighted side to assess anxiety-like behavior in light/dark box test.\nFollowing completion of video-EEG monitoring for recurrent seizures, all KA-infused mice were subjected to open field and light/dark box tests at 8 weeks post-SE. Control animals underwent infusion of PBS into the amygdala and subsequently i.v. infusion of Scr or pY816 peptide and were tested 8 weeks after PBS infusion. No differences were found between Scr and pY816 treated control animals and these groups were combined for analyses."}},
  "note": "Where no end group is shown, it is not given here. [ ]: non-standard residue; d: D form. pY = N[C@@H](Cc1ccc(OP(=O)(O)O)cc1)C(=O)O",
  "data": [
    {"substance": "YGRKKRRQRRR-LQNLAKASPVpYLDI (YGRKKRRQRRRLQNLAKASPV[pY]LDI) [pY816]", "values": [
      {"measurement": "inhibition of status epilepticus", "setting": "[1]; 1 mg/kg i.v., six hours prior to KA", "value": "ineffective"},
      {"measurement": "animals in which status epilepticus was prevented", "setting": "[1]; 3 mg/kg i.v., six hours prior to KA", "value": "at least 70%"},
      {"measurement": "earliest time at which inhibitory effects were evident following i.v. infusion", "setting": "[1]; 10 mg/kg i.v.", "value": 10, "unit": "min"},
      {"measurement": "inhibition of status epilepticus remitted by", "setting": "[1]; 10 mg/kg i.v.", "value": "≤ 72", "unit": "h"},
      {"measurement": "peak of inhibition of status epilepticus (pretreatment interval)", "setting": "[1]; 10 mg/kg i.v.", "value": 0.5, "unit": "h"},
      {"measurement": "persistence of inhibition of status epilepticus", "setting": "[1]; 10 mg/kg i.v.", "value": 24, "unit": "h"},
      {"measurement": "return of seizure inhibition to control levels by", "setting": "[1]; 10 mg/kg i.v.", "value": "≤ 72", "unit": "h"},
      {"measurement": "inhibition of status epilepticus (time course)", "setting": "[1]; 10 mg/kg i.v., 0.16-72 hr prior to KA", "value": "striking time dependent inhibition of status epilepticus"},
      {"measurement": "status epilepticus at 0.5 hour pretreatment", "setting": "[1]; 10 mg/kg i.v., 0.5 hour prior to KA", "value": "eliminated altogether"},
      {"measurement": "maximal inhibition of convulsive motor and electrographic seizures", "setting": "[1]; 10 mg/kg i.v., 6 hr prior to KA", "value": 90, "unit": "%"},
      {"measurement": "latency to the onset of status epilepticus", "setting": "[1]; 10 mg/kg i.v., compared to scrambled control peptide 10 mg/kg", "value": "prolonged"},
      {"measurement": "animals in which status epilepticus was prevented", "setting": "[1]; 10 mg/kg i.v., six hours prior to KA", "value": "at least 70%"},
      {"measurement": "increase of latency to onset of status epilepticus", "setting": "[1]; 10 mg/kg i.v., six hours prior to KA, compared to Scr-phospho-Tat-pTrkBY816", "value": 3, "unit": "fold"},
      {"measurement": "inhibition of convulsive motor and electrographic seizures persisting for 24 hr", "setting": "[1]; 10 mg/kg i.v., up to 24 hr prior to KA", "value": "80-90%"},
      {"measurement": "onset of inhibition of status epilepticus (pretreatment interval)", "setting": "[1]; 10 mg/kg i.v., earliest time tested", "value": 0.16, "unit": "h"},
      {"measurement": "latency to onset of behavioral status epilepticus (dose response)", "setting": "[1]; 1, 3, 10 mg/kg i.v., six hours prior to KA", "value": "increased the latency to onset of behavioral status epilepticus in a dose dependent fashion"},
      {"measurement": "latency to enter the lighted compartment", "setting": "anxiety-like behavior", "value": "significantly reduced latency"},
      {"measurement": "time spent in lighted compartment", "setting": "anxiety-like behavior", "value": "spent increased time"}
    ]},
    {"substance": "YGRKKRRQRRRLVApYQLKIAPNDLS (YGRKKRRQRRRLVA[pY]QLKIAPNDLS) [Scr, reference compound]", "values": [
      {"measurement": "animals in which kainic acid induced status epilepticus", "setting": "[1]; 10 mg/kg i.v. at different times prior to KA", "value": "23 of 24"},
      {"measurement": "KA-induced seizures following i.v. infusion of peptide", "setting": "[1]; i.v. prior to KA infusion into amygdala", "value": "prolonged convulsive motor and electrographic seizures"},
      {"measurement": "animals in which kainic acid induced status epilepticus", "setting": "[1]; regardless of dose (1, 3, 10 mg/kg), six hours prior to KA", "value": "all animals"},
      {"measurement": "latency to enter the lighted compartment", "setting": "anxiety-like behavior", "value": "prolonged latency"},
      {"measurement": "time spent in lighted compartment", "setting": "anxiety-like behavior", "value": "spent less time"}
    ]}
  ]
}
